Assay results as given in patent publication US12415781B2, “Compounds with biguanidyl radical and uses thereof” (INSTITUT CURIE, priority 2018, dated 2025).
Counter-ions that a name gives are not always drawn.

Legend:
[1] = test system: MDA-MB-468 cells; test: Mitochondrial membrane potential (MitoProbe JC-1); type: cell-based, human
Description: Mitochondrial membrane potential. Measurements were performed using the MitoProbe™ JC-1 assay kit (M34152, Thermo Fischer Scientific) according to the manufacturer's protocol. In brief, cells were treated with 2 μM JC-1 or CCCP ([…]) control for the indicated time.

[2] = test system: MDA-MB-468 cells; test: Mitochondrial ROS levels (MitoSOX Red, flow cytometry); type: cell-based, human
Description: ROS levels. Mitochondrial ROS was measured using MitoSOX™ Red Mitochondrial Superoxide Indicator (M36008, Thermo Fisher Scientific) according to the manufacturer's protocol.

[3] = test system: MDA-MB-468 cells; test: Cell death (Annexin V-FITC/PI) with cell death inhibitors; type: cell-based, human; conditions: Z-VAD-FMK 50 μM, ferrostatin-1 10 μM, necrostatin-1 20 μM, 72 h; not rescued by ferrostatin-1 and necrostatin-1
Description: Cell death. […] Data were analyzed by a LSRFortessaTM flow cytometer (BD Biosciences, San Jose, CA) and processed using Cell Quest (BD Biosciences) and FlowJo (FLOWJO, LLC) software.

[4] = test system: triple negative human breast cancer cells and circulating tumor cells (CTC) from patients with colorectal cancer; test: Cell viability (CellTiter-Blue), dose response of cancer cells, FIG. 1B; type: cell-based; conditions: 72 h, cell line not named
Description: (§1) FIG. 1. […] (FIG. 1B) Dose response viability curves of cancer cells treated as indicated for 72 h. […] (FIG. 1D) Dose response viability curves of HMLER cells in epithelial and mesenchymal states treated as indicated for 72 h. Data points and error bars, mean values and s.d. of three independent biological replicates.
(§2) Cell culture. Dulbecco's Phosphate-Buffered Saline (14190-094, 500 mL, Gibco), Dulbecco's Modified Eagle Medium (DMEM)/F12 (31331-028, 500 mL, Gibco), DMEM GlutaMAX™ (61965059, Thermo Fisher Scientific), Fetal Bovine Serum (FBS, 10270-106, Gibco), Hydrocortisone (H0888, Sigma Aldrich), Insulin (I0516 or I9278, Sigma Aldrich), PEN-STREP (DE17-602E, BioWhittaker, Lonza), Puromycin dihydrochloride (A11138-02, Life Technologies). MCF-7 (ATCC®, HTB-22™), MDA-MB-231 (ATCC®, HTB-26™), MDA-MB-468 (ATCC®, HTB-132™) and circulating tumor cells were grown in DMEM supplemented with 10% FBS and 1% penicillin (100 U/mL), streptomycin (100 μg/mL) and incubated at 37° C. with 5% CO2. To induce EMT, cells were treated with epidermal growth factor EGF (100 ng/ml) (Miltenyi Biotec) for 72 h. The human mammary epithelial cell line infected with a retrovirus carrying hTERT, SV40 and the oncogenic allele HrasV12, named HMLER cells were a generous gift from A. Puisieux. HMLER cells were cultured in DMEM/F12 supplemented with 10% FBS, 10 μg/mL insulin, 0.5 μg/mL hydrocortisone, 10 ng/ml hEGF, and 0.5 μg/mL puromycin. A mycoplasma test was performed using PCR mycoplasma detection kit (G238, Applied Biological Materials).
(§3) Cell viability. Cell viability was carried out by plating 1000 cells/well in 96-well plates using CellTiter-Blue® viability assay according to the manufacturer's protocol. Cells were treated as indicated for 72 h. CellTiter-Blue® reagent (G8081, Promega) was added after 72 h treatment and cells were incubated for 1-2 h before recording fluorescence intensities (ex. 560/20 nm; em. 590/10 nm) using a Perkin Elmer Wallac 1420 Victor2 Microplate Reader.

[5] = test system: MDA-MB-468 cells; test: EGF-induced epithelial-to-mesenchymal transition (E-cadherin/phalloidin imaging, Western blot of markers, CD44/CD24 flow cytometry); type: cell-based, human; conditions: 72 h; E-cadherin, phalloidin, fibronectin, vimentin, Zeb1, Snail, Slug, CD44high/CD24low proportion
Description: as §2
Western blotting. […] Extracts were incubated at 37° C. for 1 h.
(§4) Flow cytometry. Metal-specific probes were synthesized as previously described.

[6] = Cyclic voltammetry of iron solutions
[7] = test system: MDA-MB-468 cells; test: Mitochondrial copper(II) levels, turn-off fluorescent probe (microscopy, flow cytometry); type: cell-based, human; conditions: 48 h, reduction in fluorescence, metformin 12 mM, metforminyn 2 mM unless stated otherwise
Description: FIG. 2. […] Scale bar, 10 μm. […] Scale bar, 10 μm.
as §4
Copper and iron levels. Cells were incubated with the relevant probes as described in Reagents section. Cells were then analyzed either by fluorescence microscopy or flow cytometry as described in Cell Imaging and Flow Cytometry sections.

[8] = test system: MDA-MB-468 cells; test: Mitochondrial morphology; type: cell-based, human
[9] = test system: MDA-MB-468 triple negative breast cancer cells; test: Cell viability (CellTiter-Blue), epithelial and mesenchymal (EGF-induced) states, FIG. 1C; type: cell-based, human; conditions: MDA-MB-468 epithelial/mesenchymal (EGF) states, condition not named
Description: as §1, §2, §3

[10] = Cyclic voltammetry of a copper(I) solution; conditions: metformin 2 mol equiv, quasi-reversible couples
Description: Cyclic voltammetry. Cyclic voltammetry experiments were performed with a three-electrode cell under argon. Saturated Calomel Electrode (SCE) was used as reference, a steady Glassy Carbon (GC) electrode of diameter 3 mm was selected as working electrode and a Platinum wire as counterelectrode. All cyclic voltammograms were recorded at RT with a μ-autolab III from Metrohm using Nova software with a scan rate of 0.5 V/s. MeCN was used as a degassed HPLC grade from Carlo Erba. Water was mQ H2O. Solutions with copper were prepared with 0.3 M nBu4NBF4 (180 mg) in MeCN (1.8 mL) and 200 μl of a 20 mM Cu(MeCN)4PF6 stock solution in MeCN (7.4 mg/mL).

In the case of `CN(C)C(=N)NC(=N)N` [metformin, 1,1-Dimethylbiguanide hydrochloride], the mitochondrial membrane potential [1] is reported as “reduction of mitochondrial membrane potentials”, the “mitochondrial reactive oxygen species (ROS) levels” value [2] is reported as “increased levels of reactive oxygen species (ROS)” and the “rescue of compound-induced cell death by inhibitors” value [3] is reported as “rescued by the caspase 3 inhibitor Z-VAD-FMK”. The IC50 ([4]; Homo sapiens, 1st of four values listed 'respectively') was 12.1 mM, the IC50 ([4]; Homo sapiens, 2nd of four values listed 'respectively') was 15.1 mM and the IC50 ([4]; Homo sapiens, 3rd of four values listed 'respectively') was 7.7 mM. For the same compound, the IC50 ([4]; Homo sapiens, 4th of four values listed 'respectively') was 10.9 mM, the “induction of EMT using EGF” value [5] was “prevented” and the “redox properties of iron (cyclic voltammetry)” value [6] was “altered the redox properties of this metal”. For the same compound, the “mitochondrial levels of copper(II)” value [7] was “increased levels of copper(II)”, the mitochondrial morphology [8] was “alteration of mitochondrial morphology” and the IC50 ([9]; Homo sapiens, MDA-MB-468, 72 h, 1st of four values listed) was 24.3 mM. For the same compound, the IC50 ([9]; Homo sapiens, MDA-MB-468, 72 h, 2nd of four values listed) was 12.1 mM, the IC50 ([9]; Homo sapiens, MDA-MB-468, 72 h, 3rd of four values listed) was 5.5 mM and the IC50 ([9]; Homo sapiens, MDA-MB-468, 72 h, 4th of four values listed) was 2.3 mM. The “redox properties of copper (cyclic voltammetry)” value [10] was “altered the redox properties of copper”.
In the case of `C#CCCN(C)C(=N)NC(=N)N` [metforminyn], the mitochondrial membrane potential [1] is reported as “reduction of mitochondrial membrane potentials”, the “mitochondrial reactive oxygen species (ROS) levels” value [2] is reported as “increased levels of reactive oxygen species (ROS)” and the “rescue of compound-induced cell death by inhibitors” value [3] is reported as “rescued by the caspase 3 inhibitor Z-VAD-FMK”. It also gave an IC50 ([4]; 1st of four values listed 'respectively') of 2.5 mM, an IC50 ([4]; 2nd of four values listed 'respectively') of 4.7 mM and an IC50 ([4]; 3rd of four values listed 'respectively') of 2.8 mM. For the same compound, the IC50 ([4]; 4th of four values listed 'respectively') was 3.5 mM, the “induction of EMT using EGF” value [5] was “prevented” and the “mitochondrial levels of copper(II)” value [7] was “increased levels of copper(II)”. For the same compound, the mitochondrial morphology [8] was “alteration of mitochondrial morphology”, the IC50 ([9]; 72 h, 1st of four values listed) was 12.6 mM and the IC50 ([9]; 72 h, 2nd of four values listed) was 5.2 mM. For the same compound, the IC50 ([9]; 72 h, 3rd of four values listed) was 0.8 mM and the IC50 ([9]; 72 h, 4th of four values listed) was 0.9 mM.
